Values joined by “and” are separate entries in the source; they are usually repeats but may differ in a detail not shown here. Equal entries are not always repeated. Numbers after ± are expanded uncertainties.
Details: for vapor or sublimation pressure: Crystal 1; for Triple point temperature: Adiabatic calorimetry

**Q.** What does the source list for `NC12CC3CC(CC(C3)C1)C2` [tricyclo(3.3.1.1:3,7)decan-1-amine]?
**A.** vapor or sublimation pressure (291.05 K, Calculated from knudsen effusion weight loss): 0.00621 ± 0.00087 kPa; vapor or sublimation pressure (291.07 K, Calculated from knudsen effusion weight loss): 0.00627 ± 0.00088 kPa; vapor or sublimation pressure (291.2 K, Transpiration method): 0.00632 ± 0.00032 kPa; vapor or sublimation pressure (293.54 K, Calculated from knudsen effusion weight loss): 0.00757 ± 0.0011 kPa; vapor or sublimation pressure (293.55 K, Calculated from knudsen effusion weight loss): 0.00752 ± 0.0011 kPa; vapor or sublimation pressure (294.2 K, Transpiration method): 0.00832 ± 0.00042 kPa; vapor or sublimation pressure (297.1 K, Transpiration method): 0.0107 ± 0.0005 kPa; mass density (298.15 K, 101.33 kPa, Crystal 3, Pycnometric method): 1100 ± 100 kg/m3; vapor or sublimation pressure (300.1 K, Transpiration method): 0.0137 ± 0.0007 kPa; vapor or sublimation pressure (303.2 K, Transpiration method): 0.0186 ± 0.0009 kPa; vapor or sublimation pressure (305.6 K, Transpiration method): 0.0223 ± 0.0011 kPa; vapor or sublimation pressure (305.94 K, Calculated from knudsen effusion weight loss): 0.0211 ± 0.0035 kPa; vapor or sublimation pressure (305.98 K, Calculated from knudsen effusion weight loss): 0.0204 ± 0.0034 kPa; vapor or sublimation pressure (308.1 K, Transpiration method): 0.027 ± 0.0014 kPa; vapor or sublimation pressure (308.52 K, Calculated from knudsen effusion weight loss): 0.0263 ± 0.0045 kPa; vapor or sublimation pressure (310.4 K, Transpiration method): 0.0291 ± 0.0015 kPa; vapor or sublimation pressure (310.94 K, Calculated from knudsen effusion weight loss): 0.0309 ± 0.0054 kPa and 0.0315 ± 0.0055 kPa; vapor or sublimation pressure (313.2 K, Transpiration method): 0.0396 ± 0.002 kPa; vapor or sublimation pressure (318 K, Transpiration method): 0.0535 ± 0.0027 kPa; vapor or sublimation pressure (318.3 K, Transpiration method): 0.0549 ± 0.0027 kPa; vapor or sublimation pressure (323.3 K, Transpiration method): 0.0777 ± 0.0039 kPa; vapor or sublimation pressure (328.1 K, Transpiration method): 0.108 ± 0.005 kPa; vapor or sublimation pressure (333.4 K, Transpiration method): 0.148 ± 0.007 kPa and 0.153 ± 0.008 kPa; vapor or sublimation pressure (338.3 K, Transpiration method): 0.2 ± 0.01 kPa; vapor or sublimation pressure (338.5 K, Transpiration method): 0.205 ± 0.01 kPa; vapor or sublimation pressure (343.4 K, Transpiration method): 0.269 ± 0.014 kPa; vapor or sublimation pressure (343.6 K, Transpiration method): 0.286 ± 0.014 kPa; Triple point temperature (Crystal 2): 284.6 ± 0.1 K; Triple point temperature (Crystal 3): 241.4 ± 0.1 K

Source: the NIST ThermoML archive (doi:10.1016/j.jct.2007.08.002)
